From patent US20250318523A1, “Use of Pinenes to Improve Localized Insecticide Injections Targeting Western Drywood Termite (Blattodea: Kalotermitidae)” (THE REGENTS OF THE UNIVERSITY OF CALIFORNIA, priority 2024, published 2025)

What was measured:
[1] = system: I. minor workers; experiment: T-maze bioassay; format: in vivo, Incisitermes minor; conditions: at 24 h; for percent of termites found in the treated choice block (mean±SEM): block treated with 100 μL of 0.1 mg/mL pinene in methanol; for percent of termites found in the untreated choice block (mean±SEM): other block treated with 100 μL of 0.1 mg/mL pinene in methanol
Source text: Termites. Western drywood termites, I. minor, were extracted from several pieces of infested wood collected in Riverside, CA. Each colony was stored in a plastic container (30.5 by 21.6 by 6.4 cm) with small pieces of basswood (150 by 100 by 3.2 mm; Midwest Products Co., Inc., Darien, IL) as a food source. A couple of small openings were made on the sides of the containers for ventilation, and the containers were placed within a larger plastic box (40.6 cm by 22.9 cm by 27.9 cm) containing a saturated NaCl solution to maintain 75% relative humidity (RH) within the larger box (Winston and Bates 1960). The stock colony boxes were kept in a growth chamber (Thermo Fisher Scientific, Waltham, MA) at 26° C. without light. To minimize the chance of using termites that were damaged during the collection process, the collected termites were left undisturbed for at least 7 days (d), and the surviving termites at the end of this period were used in the experiments. One or two different populations were randomly chosen to set up each experimental trial. Only worker termites (approximately 5 mm in length) were used for the experiments.
Chemicals. Two monoterpenes, α-pinene (98%, Sigma-Aldrich, St. Louis, MO) and (−)-β-pinene (>99%, Sigma-Aldrich), were individually tested for their effects on drywood termite behavior. Methanol was used to dissolve the pinenes at 0.1 mg/mL concentration. Clean methanol served as a solvent-only control.
T-maze Bioassay. A T-maze bioassay was developed to study the effects of α- or β-pinene on the choice behavior of I. minor within a simplified termite gallery system. The T-maze consisted of three basswood blocks (2.54 cm by 2.54 cm by 10.16 cm). One block served as a central acclimation block, while the other two served as lateral choice blocks (FIG. 2). All blocks were drilled along the centerline to form longitudinal tunnels (8.9 cm in depth, 0.95 cm in diameter), which ended near the opposite end of the block (about 1.2 cm away from the opposite end of the block). For the acclimation block, a through hole (0.95 cm in diameter) was drilled to add a cross tunnel, perpendicularly intersecting the longitudinal tunnel at its closed end. This cross tunnel provided connection points between the acclimation block and two choice blocks.
Twenty termites from the stock colony were placed in the tunnel of the acclimation block and confined there for 24 hours (h) by sealing the holes with rubber stoppers. Two choice blocks were randomly assigned for treatment (treated block) or no treatment (untreated block). […] After 24 hours, T-mazes were disassembled, and numbers of termites in each of the three blocks (two choice blocks and one acclimation block) were recorded. […]

[2] = system: I. minor workers; experiment: Channel arena bioassay; format: in vivo, Incisitermes minor; conditions: after 24 hours; pinene 1.3 μg/cm2 (100 μL of 0.1 mg/mL in methanol); 20 termites, 10 replicates
Source text: (§1) Termites. Western drywood termites, I. minor, were extracted from several pieces of infested wood collected in Riverside, CA. Each colony was stored in a plastic container (30.5 by 21.6 by 6.4 cm) with small pieces of basswood (150 by 100 by 3.2 mm; Midwest Products Co., Inc., Darien, IL) as a food source. A couple of small openings were made on the sides of the containers for ventilation, and the containers were placed within a larger plastic box (40.6 cm by 22.9 cm by 27.9 cm) containing a saturated NaCl solution to maintain 75% relative humidity (RH) within the larger box (Winston and Bates 1960). The stock colony boxes were kept in a growth chamber (Thermo Fisher Scientific, Waltham, MA) at 26° C. without light. […]
To establish the “initial-aggregation zone,” twenty termites were confined to a 5-cm zone at one end of the channel for 24 hours (h) using a cotton plug (FIG. 1). […] After 24 hours (h), the number of termites in the treatment zone was counted under red light (110 lux, Tacklife; Levittown, NY) to minimize any disruption to the termites during observation (Cabrera and Rust 1996). […]
(§2) Statistical Analyses. […] The data were first analyzed with a Kaplan-Meier survival analysis for the insecticide bioassays. […]

[3] = system: I. minor workers; experiment: Insecticide bioassay for fipronil (channel arena); format: in vivo; conditions: Incisitermes minor, 336 h; day 14; 10 μL of 0.06% aqueous fipronil suspension on 1.43 cm^2; pinene 100 μL of 0.1 mg/mL in methanol; read-out: final cumulative mortality
Source text: as §1
Insecticide Bioassay. The effect of pinenes on the efficacy of insecticide residue was evaluated using the channel arena bioassay design (FIG. 2). […]
Two different control groups were included in the experimental design: one without insecticide, and the other with insecticide. […] Termites were recorded as dead (no movement) or alive. […]
as §2

Compound	percent of termites found in the treated choice block (mean±SEM) [1]	percent of termites found in the untreated choice block (mean±SEM) [1]	percent of termites found in the treatment zone (mean±SEM) [2]	mortality at 100 µg/mL [3]
C=C1CC[C@H]2C[C@@H]1C2(C)C [β-pinene, (−)-β-pinene]	54.5±14.8%	4.5±3.5%	58±6.3%	
CC1=CCC2CC1C2(C)C (stereo not drawn) [α-pinene]	45.5±14.1%	7.0±7.0%	55±9.3%	
N#Cc1nn(-c2c(Cl)cc(C(F)(F)F)cc2Cl)c(N)c1[S+]([O-])C(F)(F)F (stereo not shown) [fipronil only, fipronil]				76.5 ± 5.7%
